Results: ChEMBL document CHEMBL3244338, “Antineoplastic agents. Structure-activity relationship study of bis(substituted aminoalkylamino)anthraquinones” (J Med Chem, 1978)
Calls of active or inactive are those of the source. The calls are words filed in the database; no cut-off is given here.

How the values were obtained:
Mus musculus [1] = assay: Toxicity in mouse P388 cells allografted BDF1 mouse assessed as body weight difference at 0.5 mg/kg administered 24 hrs post challenge relative to control; type: organism-based; set-up: dose 0.5 mg/kg; details: in vivo
Mus musculus [2] = assay: Toxicity in mouse P388 cells allografted BDF1 mouse assessed as body weight difference at 0.25 mg/kg administered 24 hrs post challenge relative to control; type: organism-based; set-up: dose 0.25 mg/kg; details: in vivo
B16 [3] = assay: Antitumor activity against mouse B16 cells allografted in BDF1 mouse assessed as increase in survival time at 1 mg/kg administered 24 hrs post challenge relative to control; type: functional
P388 [4] = assay: Antitumor activity against mouse P388 cells allografted in BDF1 mouse assessed as mouse survival at 0.06 mg/kg administered 24 hrs post challenge relative to control; type: functional, organism-based; set-up: dose 0.06 mg/kg
Mus musculus [5] = assay: Toxicity in mouse P388 cells allografted BDF1 mouse assessed as body weight difference at 0.12 mg/kg administered 24 hrs post challenge relative to control; type: organism-based; set-up: dose 0.12 mg/kg; details: in vivo
P388 [6] = assay: Antitumor activity against mouse P388 cells allografted in BDF1 mouse assessed as increase in survival time at 0.5 mg/kg administered 24 hrs post challenge relative to control; type: functional
P388 [7] = assay: Antitumor activity against mouse P388 cells allografted in BDF1 mouse assessed as increase in survival time at 1 mg/kg administered 24 hrs post challenge relative to control; type: functional
P388 [8] = assay: Antitumor activity against mouse P388 cells allografted in BDF1 mouse assessed as mouse survival at 0.5 mg/kg administered 24 hrs post challenge relative to control; type: functional, organism-based; set-up: dose 0.5 mg/kg
Mus musculus [9] = assay: Toxicity in mouse P388 cells allografted BDF1 mouse assessed as body weight difference at 1 mg/kg administered 24 hrs post challenge relative to control; type: organism-based; set-up: dose 1 mg/kg; details: in vivo
P388 [10] = assay: Antitumor activity against mouse P388 cells allografted in BDF1 mouse assessed as increase in survival time at 0.06 mg/kg administered 24 hrs post challenge relative to control; type: functional
Mus musculus [11] = assay: Toxicity in mouse P388 cells allografted BDF1 mouse assessed as body weight difference at 0.06 mg/kg administered 24 hrs post challenge relative to control; type: organism-based; set-up: dose 0.06 mg/kg; details: in vivo
B16 [12] = assay: Antitumor activity against mouse B16 cells allografted in BDF1 mouse assessed as increase in survival time at 0.5 mg/kg administered 24 hrs post challenge relative to control; type: functional
P388 [13] = assay: Antitumor activity against mouse P388 cells allografted in BDF1 mouse assessed as increase in survival time at 2 mg/kg administered 24 hrs post challenge relative to control; type: functional
P388 [14] = assay: Antitumor activity against mouse P388 cells allografted in BDF1 mouse assessed as mouse survival at 2 mg/kg administered 24 hrs post challenge relative to control; type: functional, organism-based; set-up: dose 2 mg/kg
P388 [15] = assay: Antitumor activity against mouse P388 cells allografted in BDF1 mouse assessed as mouse survival at 0.12 mg/kg administered 24 hrs post challenge relative to control; type: functional, organism-based; set-up: dose 0.12 mg/kg
P388 [16] = assay: Antitumor activity against mouse P388 cells allografted in BDF1 mouse assessed as increase in survival time at 0.25 mg/kg administered 24 hrs post challenge relative to control; type: functional
Mus musculus [17] = assay: Toxicity in mouse P388 cells allografted BDF1 mouse assessed as body weight difference at 2 mg/kg administered 24 hrs post challenge relative to control; type: organism-based; set-up: dose 2 mg/kg; details: in vivo
P388 [18] = assay: Antitumor activity against mouse P388 cells allografted in BDF1 mouse assessed as increase in survival time at 0.12 mg/kg administered 24 hrs post challenge relative to control; type: functional
P388 [19] = assay: Antitumor activity against mouse P388 cells allografted in BDF1 mouse assessed as mouse survival at 0.25 mg/kg administered 24 hrs post challenge relative to control; type: functional, organism-based; set-up: dose 0.25 mg/kg
P388 [20] = assay: Antitumor activity against mouse P388 cells allografted in BDF1 mouse assessed as mouse survival at 200 mg/kg administered 24 hrs post challenge relative to control; type: functional, organism-based; set-up: dose 200 mg/kg
P388 [21] = assay: Antitumor activity against mouse P388 cells allografted in BDF1 mouse assessed as mouse survival at 100 mg/kg administered 24 hrs post challenge relative to control; type: functional, organism-based; set-up: dose 100 mg/kg
Mus musculus [22] = assay: Toxicity in mouse P388 cells allografted BDF1 mouse assessed as body weight difference at 200 mg/kg administered 24 hrs post challenge relative to control; type: organism-based; set-up: dose 200 mg/kg; details: in vivo
Mus musculus [23] = assay: Toxicity in mouse P388 cells allografted BDF1 mouse assessed as body weight difference at 100 mg/kg administered 24 hrs post challenge relative to control; type: organism-based; set-up: dose 100 mg/kg; details: in vivo
P388 [24] = assay: Antitumor activity against mouse P388 cells allografted in BDF1 mouse assessed as mouse survival at 400 mg/kg administered 24 hrs post challenge relative to control; type: functional, organism-based; set-up: dose 400 mg/kg
P388 [25] = assay: Antitumor activity against mouse P388 cells allografted in BDF1 mouse assessed as increase in survival time at 400 mg/kg administered 24 hrs post challenge relative to control; type: functional
P388 [26] = assay: Antitumor activity against mouse P388 cells allografted in BDF1 mouse assessed as increase in survival time at 100 mg/kg administered 24 hrs post challenge relative to control; type: functional
P388 [27] = assay: Antitumor activity against mouse P388 cells allografted in BDF1 mouse assessed as increase in survival time at 200 mg/kg administered 24 hrs post challenge relative to control; type: functional
Mus musculus [28] = assay: Toxicity in mouse P388 cells allografted BDF1 mouse assessed as body weight difference at 400 mg/kg administered 24 hrs post challenge relative to control; type: organism-based; set-up: dose 400 mg/kg; details: in vivo

## O=C1c2c(O)ccc(O)c2C(=O)c2c(NCCNCCO)ccc(NCCNCCO)c21 [MITOXANTRONE]
Mus musculus [1]
  Activity: -2 g
Mus musculus [2]
  Activity: -2.3 g
B16 [3]
  T/C: 503%
P388 [4]
  Activity: Active
Mus musculus [5]
  Activity: -1.4 g
P388 [6]
  T/C: 299%
P388 [7]
  T/C: 277%
P388 [8]
  Activity: Active
Mus musculus [9]
  Activity: -0.6 g
P388 [10]
  T/C: 208%
Mus musculus [11]
  Activity: -1.7 g
B16 [12]
  T/C: 466%
P388 [13]
  T/C: 280%
P388 [14]
  Activity: Active
P388 [15]
  Activity: Active
P388 [16]
  T/C: 280%
Mus musculus [17]
  Activity: -0.6 g
P388 [18]
  T/C: 200%
P388 [19]
  Activity: Active

## COc1ccc(CCNc2ccc(NCCc3ccc(OC)c(OC)c3)c3c2C(=O)c2ccccc2C3=O)cc1OC
P388 [20]
  Activity: Active
P388 [21]
  Activity: Active
Mus musculus [22]
  Activity: -3.2 g
Mus musculus [23]
  Activity: -1.7 g
P388 [24]
  Activity: Active
P388 [25]
  T/C: 91%
P388 [26]
  T/C: 86%
P388 [27]
  T/C: 101%
Mus musculus [28]
  Activity: -2.9 g
